Literature values as cited in patent publication US20220031739A1, “ANTI-VIRAL COMPOSITIONS AND METHODS OF USE THEREOF” (Eye Therapies LLC, priority 2020, published 2022).

Test system: herpes simplex virus ("HSV")

O=c1[nH]c(=O)n([C@H]2C[C@H](O)[C@@H](CO)O2)cc1C(F)(F)F [Trifluridine, trifluridine]
toxicity (likelihood especially high when used for long periods for deeper infections): causes toxicity of both virus and corneal cells
time to treat superficial HSV infections from the start of treatment (superficial HSV infections): ≤ 1 week
